Laboratory results from patent US20230391772A1, “METHODS AND COMPOSITIONS FOR TARGETED PROTEIN DEGRADATION” (Ranok Therapeutics (Hangzhou) Co. Ltd., priority 2020, published 2023).

Key:
HSP90a protein = target: T1, HSP90a protein (Homo sapiens, UniProt P07900); assay: HSP90α-binding fluorescent polarization (FP) assay, BODIPY-labeled RNK04010 probe; settings: FP competition with RNK04010 (BODIPY-labeled), 5 nM, 300 min at 25° C.
T1 construct: purchased BPS Bioscience 50298
Method in brief: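 Compound dilutions (20 μM to 5.2 nM, 2.5-fold) are combined with 5 nM final labeled probe, and HSP90a N-terminal protein is added last. Plates are shaken briefly and held at 25° C for 120 min (FITC-geldanamycin) or 300 min (BODIPY-RNK04010), then FP is measured.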

[1] = system: MIA PaCa-2 human pancreatic carcinoma; assay: MIA PaCa-2 CCK-8 proliferation assay; assay type: cell-based; settings: Homo sapiens, MIA PaCa-2, 72 h, MIA PaCa-2 cells
Method in brief: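 Percent inhibition derived from CCK-8 optical signal, normalised between DMSO-only cells (0%) and cell-free medium containing DMSO as background. Cells: MIA PaCa-2 carrying 2 KRAS(G12C) copies; NCI-H358, NCI-H23 carrying 1 copy apiece. Concentrations spanned 1.02 nM–20 μM in threefold increments.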

KRAS(G12C) = KRAS(G12C) (Homo sapiens, UniProt P01116, G12C); assay: KRAS(G12C)/SOS1 homogeneous time-resolved fluorescence (HTRF) assay; design: purchased Cisbio 63ADK000CB16PEG; settings: absence of GTP, 4° C. for 3 hr, read-out: KRAS (G12C) binding
Method in brief: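 Three-hour incubation at 4 °C of 3-fold compound dilutions (lowest 1.02 nM) with KRAS(G12C), SOS1 and detection reagents, GTP absent. Disruption of the KRAS(G12C)/SOS1 complex detected by time-resolved fluorescence.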

KRAS(G12C), sequence (P01116 1-188 isoform P01116-2 G12C): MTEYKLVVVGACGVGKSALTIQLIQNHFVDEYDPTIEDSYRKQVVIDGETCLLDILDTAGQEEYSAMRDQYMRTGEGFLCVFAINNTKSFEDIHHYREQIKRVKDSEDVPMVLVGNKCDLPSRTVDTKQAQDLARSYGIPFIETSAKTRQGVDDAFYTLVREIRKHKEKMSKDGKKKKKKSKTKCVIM

| SMILES | IC50 (HSP90a protein) | EC50 [1] | IC50 (KRAS(G12C)) |
| --- | --- | --- | --- |
| C=CC(=O)N1CCN(c2nc(OC[C@@H]3C[C@@H](NC(=O)C4CCN(Cc5ccc(-n6c(C(=O)NCCN7CCN(C)CC7)nnc6-c6cc(C(C)C)c(O)cc6O)cc5)CC4)CN3C)nc3c2CCN(c2cccc4cccc(Cl)c24)C3)C[C@@H]1CC#N [Compound 201, N-((3R,5S)-5-(((4-((S)-4-acryloyl-3-(cyanomethyl)piperazin-1-yl)-7-(8-chloronaphthalen-1-yl)-5,6,7,8-tetrahydropyrido[3,4-d]pyrimidin-2-yl)oxy)methyl)-1-methylpyrrolidin-3-yl)-1-(4-(3-(2,4-dihydroxy-5-isopropylphenyl)-5-((2-(4-methylpiperazin-1-yl)ethyl)carbamoyl)-4H-1,2,4-triazol-4-yl)benzyl)piperidine-4-carboxamide] | < 100 nM | > 1000 nM | 100 to 1000 nM |
| C=CC(=O)N1CCN(c2nc(OC[C@@H]3C[C@H](NC(=O)C4CCN(C(=O)C5CCN(Cc6ccc(-n7c(C(=O)NCC(F)(F)F)nnc7-c7cc(C(C)C)c(O)cc7O)cc6)CC5)CC4)CN3C)nc3c2CCN(c2cccc4cccc(Cl)c24)C3)C[C@@H]1CC#N [Compound 307, N-[(3S,5S)-5-({[7-(8-chloronaphthalen-1-yl)-4-[(3S)-3-(cyanomethyl)-4-(prop-2-enoyl)piperazin-1-yl]-5H,6H,8H-pyrido[3,4-d]pyrimidin-2-yl]oxy}methyl)-1-methylpyrrolidin-3-yl]-1-[1-({4-[3-(2,4-dihydroxy-5-isopropylphenyl)-5-[(2,2,2-tri-fluoroethyl)carbamoyl]-1,2,4-triazol-4-yl]phenyl}methyl)piperidine-4-carbonyl]piperidine-4-carboxamide] | < 100 nM | < 100 nM | < 100 nM |
| C=CC(=O)N1CCN(c2nc(OCCN3CCC(C(=O)N4CCC(Cc5ccc(-n6c(O)nnc6-c6cc(C(C)C)c(O)cc6O)cc5)CC4)CC3)nc3c2CCN(c2cccc4cccc(Cl)c24)C3)C[C@@H]1CC#N [Compound 211, (S)-2-(1-acryloyl-4-(7-(8-chloronaphthalen-1-yl)-2-(2-(4-(4-(4-(3-(2,4-dihydroxy-5-isopropylphenyl)-5-hydroxy-4H-1,2,4-triazol-4-yl)benzyl)piperidine-1-carbonyl)piperidin-1-yl)ethoxy)-5,6,7,8-tetrahydropyrido[3,4-d]pyrimidin-4-yl)piperazin-2-yl)acetonitrile] | < 100 nM | > 1000 nM | 100 to 1000 nM |
| C=CC(=O)N1CCN(c2nc(OC[C@@H]3CC[C@H](COC(=O)NCc4ccc(-n5c(O)nnc5-c5cc(CC)c(O)cc5O)cc4)N3C)nc3c2CCN(c2cccc4cccc(Cl)c24)C3)C[C@@H]1CC#N [Compound 296, ((2R,5S)-5-(((4-((S)-4-acryloyl-3-(cyanomethyl)piperazin-1-yl)-7-(8-chloronaphthalen-1-yl)-5,6,7,8-tetrahydropyrido[3,4-d]pyrimidin-2-yl)oxy)methyl)-1-methylpyrrolidin-2-yl)methyl4-(3-(5-ethyl-2,4-dihydroxyphenyl)-5-hydroxy-4H-1,2,4-triazol-4-yl)benzylcarbamate] | < 100 nM | > 1000 nM | 100 to 1000 nM |
| C=CC(=O)N1CCN(c2nc(OC[C@@H]3C[C@H](N4CCC(C(=O)N5CCN(Cc6ccc(-n7c(O)nnc7-c7cc(C)c(O)cc7O)cc6)CC5)CC4)CN3C)nc3c2CCN(c2cccc4cccc(Cl)c24)C3)C[C@@H]1CC#N [Compound 321, 2-[(2S)-4-[7-(8-chloronaphthalen-1-yl)-2-{[(2S,4S)-4-{4-[4-({4-[3-(2,4-dihydroxy-5-methylphenyl)-5-hydroxy-1,2,4-triazol-4-yl]phenyl}methyl)piperazine-1-carbonyl]piperidin-1-yl}-1-methylpyrrolidin-2-yl]methoxy}-5H,6H,8H-pyrido[3,4d]-pyrimidin-4-yl]-1-(prop-2-enoyl)piperazin-2-yl]acetonitrile] | < 100 nM | 100 to 1000 nM | < 100 nM |
| C=CC(=O)N1CCN(c2nc(OC[C@@H]3C[C@H](N4CCC5(CCN(C(=O)C6CCN(Cc7ccc(-n8c(C(=O)NCC(F)(F)F)nnc8-c8cc(C(C)C)c(O)cc8O)cc7)CC6)CC5)CC4)CN3C)nc3c2CCN(c2cccc4cccc(Cl)c24)C3)C[C@@H]1CC#N [Compound 311, 4-{4-[(4-{9-[(3S,5S)-5-({[7-(8-chloronaphthalen-1-yl)-4-[(3S)-3-(cyanomethyl)-4-(prop-2-enoyl)piperazin-1-yl]-5H,6H,8H-pyrido[3,4-d]pyrimidin-2-yl]oxy}methyl)-1-methylpyrrolidin-3-yl]-3,9-diazaspiro[5.5]undecane-3-carbonyl}piperidin-1-yl)methyl]phenyl}-5-(2,4-dihydroxy-5-isopropylphenyl)-N-(2,2,2-trifluoroethyl)-1,2,4-triazole-3-carboxamide] | < 100 nM | < 100 nM | < 100 nM |
| C=CC(=O)N1CCN(c2nc(OC[C@@H]3C[C@@H](NC(=O)c4ccc(-n5c(O)nnc5-c5cc(C(C)C)c(O)cc5O)cc4)CN3C)nc3c2CCN(c2cccc4cccc(Cl)c24)C3)C[C@@H]1CC#N [Compound 196, N-((3R,5S)-5-(((4-((S)-4-acryloyl-3-(cyanomethyl)piperazin-1-yl)-7-(8-chloronaphthalen-1-yl)-5,6,7,8-tetrahydropyrido[3,4-d]pyrimidin-2-yl)oxy)methyl)-1-methylpyrrolidin-3-yl)-4-(3-(2,4-dihydroxy-5-isopropylphenyl)-5-hydroxy-4H-1,2,4-triazol-4-yl)benzamide, trifluoroacetic acid] | < 100 nM | > 1000 nM | 100 to 1000 nM |

Next, values leading:

| IC50 (HSP90a protein) | EC50 [1] | IC50 (KRAS(G12C)) | SMILES |
| --- | --- | --- | --- |
| < 100 nM | > 1000 nM | > 1000 nM | C=CC(=O)N1CCN(c2nc(OC[C@@H]3CN(C(=O)C4CCN(Cc5ccc(-n6c(C(N)=O)nnc6-c6cc(C(C)C)c(O)cc6O)cc5)CC4)CCN3C)nc3c2CCN(c2cccc4cccc(Cl)c24)C3)C[C@@H]1CC#N [Compound 197, 4-(4-((4-((S)-3-(((4-((S)-4-acryloyl-3-(cyanomethyl)piperazin-1-yl)-7-(8-chloronaphthalen-1-yl)-5,6,7,8-tetrahydropyrido[3,4-d]pyrimidin-2-yl)oxy)methyl)-4-methylpiperazine-1-carbonyl)piperidin-1-yl)methyl)phenyl)-5-(2,4-dihydroxy-5-isopropylphenyl)-4H-1,2,4-triazole-3-carboxamide, trifluoroacetic acid] |
| < 100 nM | 100 to 1000 nM | < 100 nM | C=CC(=O)N1CCN(c2nc(OC[C@@H]3C[C@H](NC(=O)C4CCN(Cc5ccc(-n6c(O)nnc6-c6cc(C(C)C)c(O)cc6O)cc5)CC4)CN3C)nc3c2CCN(c2cccc4cccc(Cl)c24)C3)C[C@@H]1CC#N [Compound 214, N-((3S,5S)-5-(((4-((S)-4-acryloyl-3-(cyanomethyl)piperazin-1-yl)-7-(8-chloronaphthalen-1-yl)-5,6,7,8-tetrahydropyrido[3,4-d]pyrimidin-2-yl)oxy)methyl)-1-methylpyrrolidin-3-yl)-1-(4-(3-(2,4-dihydroxy-5-isopropylphenyl)-5-hydroxy-4H-1,2,4-triazol-4-yl)benzyl)piperidine-4-carboxamide] |
| < 100 nM | > 1000 nM | 100 to 1000 nM | C=CC(=O)N1CCN(c2nc(OC[C@@H]3CC[C@H](C(=O)N4CCN(Cc5cc(C(C)C)c(O)cc5O)CC4)N3C)nc3c2CCN(c2cccc4cccc(Cl)c24)C3)C[C@@H]1CC#N [Compound 329, 2-[(2S)-4[7-(8chloronaphthalen-1-yl)-2-{[(2S,5R)-5-{4-[(2,4-dihydroxy-5-isopropylphenyl)methyl]piperazine-1-carbonyl}-1-methylpyrrolidin-2-yl]methoxy}-5H,6H,8H-pyrido[3,4-d]pyrimidin-4-yl]-1-(prop-2-enoyl)piperazin-2-yl]acetonitrile] |
| < 100 nM | 100 to 1000 nM | < 100 nM | C=CC(=O)N1CCN(c2nc(OC[C@@H]3C[C@H](C(=O)N4CCN(Cc5ccc(-n6c(O)nnc6-c6cc(C(C)C)c(O)cc6O)cc5)CC4)CN3C)nc3c2CCN(c2cccc4cccc(Cl)c24)C3)C[C@@H]1CC#N [Compound 340, 2-[(2S)-4-[7-(8-chloronaphthalen-1-yl)-2-{[(2S,4S)-4-[4-({4-[3-(2,4-dihydroxy-5-isopropylphenyl)-5-hydroxy-1,2,4-triazol-4-yl]phenyl}methyl)piperazine-1-car-bonyl]-1-methylpyrrolidin-2-yl]methoxy}-5H,6H,8H-pyrido[3,4-d]pyrimidin-4-yl]-1-(prop-2-enoyl)piperazin-2-yl]acetonitrile] |
| < 100 nM | < 100 nM | < 100 nM | C=CC(=O)N1CCN(c2nc(OC[C@@H]3CC[C@H](CN4CCN(C(=O)C5CCN(Cc6ccc(-n7c(O)nnc7-c7cc(C(C)C)c(O)cc7O)cc6)CC5)CC4)N3C)nc3c2CCN(c2cccc4cccc(Cl)c24)C3)C[C@@H]1CC#N [Compound 313, 2-[(2S)-4-[7-(8-chloronaphthalen-1-yl)-2-{[(2S,5R)-5-({4-[1-({4-[3-(2,4-dihydroxy-5-isopropylphenyl)-5-hydroxy-1,2,4-triazol-4-yl]phenyl}methyl)piperidine-4-carbonyl]piperazin-1-yl}methyl)-1-methylpyrrolidin-2-yl]methoxy}-5H,6H,8H-pyrido [3,4-d]pyrimidin-4-yl]-1-(prop-2-enoyl)piperazin-2-yl]acetonitrile] |
